Molecules are shown by their SMILES.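 Grown in 96-well plates, cells were treated for 48 hours with each compound at five concentrations. Insufficient inhibition: endpoint recorded as highest concentration tested. GI50 is the concentration that inhibits growth by half. TGI marks complete inhibition of growth.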

Drawing on PubChem BioAssay (NCI), this text covers GI50 and TGI for 38 compounds.

The subject of this experiment is MDA-MB-468 breast. Nature of the experiment: NCI-60 cell line screen, 48 h.
With `O=S(=O)(c1ccc(NC(=S)NC23CC4CC(CC(C4)C2)C3)cc1)N1CCCCC1`, the GI50 was 2.27 µM and the TGI was found to be 6.84 µM.
In the same order, the values of `CCOC(=O)C1CCN(S(=O)(=O)/N=C2/NC(=O)NC2=C(Cl)Cl)CC1` are 0.387 µM and 2.08 µM.
Consider `CC(C)c1ccc(-c2cc(-c3cn[nH]c3-c3ccccn3)ccn2)cc1`, for which the GI50 is 10.5 µM and the TGI came to 24.7 µM.
On to `CCCCC(CC)COC(=O)C[N+](C)(C)CCOC(c1ccccc1)c1ccccc1` (stereo unspecified), for which the GI50 was 1.46 µM and the TGI was found to be 3.12 µM.
The like results for `C=C(C)[C@@H]1CC[C@]2(CO)CC[C@]3(C)[C@H](CC[C@@H]4[C@@]5(C)C=C(C#N)C(=O)C(C)(C)[C@@H]5CC[C@]43C)[C@@H]12` were, in that order, 1.3 µM and 3.85 µM.
In the same order, the values of `CN1CCN(Cc2ccc(NC(=O)c3cncc(C#Cc4cnn5cccnc45)c3)cc2C(F)(F)F)CC1` are 8.35 µM and 22.8 µM.
For `COc1ccccc1CNCCCN1C(=O)c2ccc3c4c(ccc(c24)C1=O)C(=O)N(CCCNCCNCCCN)C3=O`, the GI50 is 0.456 µM and the TGI was 2.22 µM.
The like results for `Nc1nc(Nc2cccnc2)sc1C(=O)c1ccccc1F` were, in that order, 1.37 µM and 4.04 µM.
In the same order, the values of `CCCC(CCC)NCC(O)c1cc(-c2ccc(C(F)(F)F)cc2)nc(C(F)(F)F)c1` (stereo unspecified) are 1.58 µM and 2.98 µM.
The like results for `COc1cc2ncnc(-n3ncc4cc(NC(=O)Nc5ccccc5)ccc43)c2cc1OC` were, in that order, 1.18 µM and 3.35 µM.
As for `Cc1cc(C(=O)Nc2ccc3cc(CN4CCOCC4)ccc3n2)c(C)n1-c1ccccc1`, the GI50 was 0.171 µM and the TGI turned out to be 7.11 µM.
The like results for `NS(=O)(=O)c1ccc(-c2ccc3c(NC(=O)C4CC4)n[nH]c3c2)cc1` were, in that order, over 21.6 µM and over 25 µM.
Turning to `COc1cc(OC)c(C(=O)/C=C/c2cccc(C(F)(F)F)c2)c(OC)c1`, the GI50 was 0.755 µM and the TGI is 2.01 µM.
In the case of `CCc1nc2cc(F)c(/C=C/C(=O)NO)cc2c(=O)n1CCc1ccccc1`, the GI50 is 0.217 µM and the TGI was 0.761 µM.
In the same order, the values of `COc1ccc(-c2nc3ccccn3c2/C=C/C(=O)c2cc(OC)c(OC)c(OC)c2)cc1OC` are 2.28 µM and 5.71 µM.
The like results for `CC1(C)C(=O)/C(=C\c2cccnc2)C[C@]2(C)[C@H]3CC[C@@H]4[C@H]5[C@H](C(=O)/C=C/c6cccnc6)CC[C@]5(C(=O)O)CC[C@@]4(C)[C@]3(C)CC[C@@H]12` were, in that order, 2.14 µM and 5.7 µM.
The like results for `Cc1cc(C)c(NC(=O)c2sc3nc4c(cc3c2N)C(=O)CCC4)c(C)c1` were, in that order, 0.651 µM and 4.39 µM.
With `COc1ccc(/C=C/c2c(C(=O)/C=C/c3ccccc3)c(C)nc3ccccc23)cc1`, the GI50 was 1.78 µM and the TGI stood at 3.48 µM.
`C/C(=N\Nc1ccc(Cl)cn1)c1ccc2ccccc2n1`: the GI50 was 2.88 µM and the TGI was over 100 µM.
For `C=C(C)[C@H]1Cc2c(ccc3c2O[C@@H]2COc4cc(OC)c(OC)cc4[C@@H]2C3=O)O1`, the GI50 is 0.0816 µM and the TGI was over 100 µM.
The like results for `COc1c(C(=O)/C=C/c2ccccc2)c(O)cc2occc12` were, in that order, 6.77 µM and 21.4 µM.
The like results for `O=C(Nc1n[nH]c2cc(-c3ccccc3)ccc12)C1CC1` were, in that order, 4 µM and over 25 µM.
In the same order, the values of `CC1=CC(=O)C=CC1=O` are 1.57 µM and 3.21 µM.
On to `CC/C=C\C[C@H](O)C/C=C1/C(=O)C=C[C@@H]1C/C=C\CCCC(=O)OC`, for which the GI50 is 1.68 µM and the TGI turned out to be 3.77 µM.
In the same order, the values of `Cc1cc2ncnn2cc1Nc1ncc2c(n1)n(C1CCOCC1)c(=O)n2C` are 4.37 µM and 44.8 µM.
In the same order, the values of `COCC[C@H]1CCC/C=C/[C@@H]2C[C@H](O)C[C@H]2[C@H](O)/C=C/C(=O)O1` are 0.0245 µM and 0.0714 µM.
In the same order, the values of `COc1ccc(-c2[nH]c3ccc(OC)cc3c2/C=C(\C#N)S(=O)(=O)c2ccccc2)cc1` are 1.33 µM and 44 µM.
Regarding `COc1ccc(C(=O)c2cc(C)c(OC)c(C)c2)c(OC)c1O`, the GI50 was 0.489 µM and the TGI is over 100 µM.
Regarding `Cc1ccc(NC(=O)c2cccc(C(C)(C)C#N)c2)cc1Nc1ccc2ncn(C)c(=O)c2c1`, the GI50 is 15.8 µM and the TGI was over 100 µM.
In the same order, the values of `CN1CCN(CCCNc2nc3ccc(Oc4ccc(NC(=O)Nc5cc(C(F)(F)F)ccc5F)cc4)cc3[nH]2)CC1` are 3.33 µM and 6.57 µM.
As for `COc1ccc2[nH]c3c4[nH]c5ccc(OC)cc5c4c4c(c3c2c1)C(=O)NC4=O`, the GI50 was over 25 µM and the TGI was over 25 µM.
`COC(=O)Nc1nc2ccc(C3(c4ccc(F)cc4)OCCO3)cc2[nH]1`: the GI50 was 0.159 µM and the TGI amounted to 1.19 µM.
In the same order, the values of `NC(=O)c1cc(Cl)ccc1NC(=O)/C=C/c1ccccc1` are 1.1 µM and 11.5 µM.
The like results for `COc1ccc(C(=O)c2cc(OC)c(OC)c(OC)c2)cc1/C=C/C(=O)c1ccc(F)cc1` were, in that order, 4.63 µM and 27.1 µM.
In the same order, the values of `O=C1/C(=C(/c2ccccc2)N2CCOCC2)Cc2ccccc21` are 0.501 µM and 1.9 µM.
Consider `CCNCCNc1cc(-c2ccc(C(F)(F)F)cc2)c(C#N)c2nc3ccccc3n12`, for which the GI50 was 0.688 µM and the TGI came to 2.14 µM.
The like results for `COc1ccc(C(=O)c2cc(C)c(OC)c(C)c2)cc1OC(=O)CCl` were, in that order, 0.0894 µM and 75.2 µM.
Consider `C=C1C(=O)O[C@H]2[C@H]1CC/C(COC(=O)NCCCCNC(=O)OC/C1=C/CC[C@@]3(C)O[C@H]3[C@H]3OC(=O)C(=C)[C@@H]3CC1)=C\CC[C@@]1(C)O[C@@H]21`, for which the GI50 is 0.426 µM and the TGI is 2 µM.
